Measured values from publication PMC6259618 (Molecules, 2011).
Read-outs that look alike come from different tables or passages of the source. Where a SMILES comes first, the peptide text is derived from it. Where no end group is shown, it is not given here. The star is where a group is joined. DOTA = O=C(O)CN1CCN(CC(=O)O)CCN(CC(=O)*)CCN(CC(=O)O)CC1

Assays:
[1] = tested on: human prostate carcinoma PC-3 cells; assay type: binding; details: for Binding inhibition by unlabeled DUP-1: ^125I-labeled ligand on PC-3 cells, competitor unlabeled DUP-1 at 10^-4 M
Procedure: The human prostate carcinoma cell line PC-3 (American Type Culture Collection, Manassas, VA, USA) was cultivated at 37 °C in a 5% CO2 incubator in RPMI 1640 with Glutamax containing 10% FCS (Invitrogen, Karlsruhe, Germany) and 25 mmol/L HEPES.
200,000 cells were seeded in 6-well plates and cultivated for 24 hours. The medium was replaced by 1 mL fresh medium (without FCS). ^125I-labeled or ^111In-labeled peptide was added to the cell culture (1–2 × 10^6 cpm per well) and incubated for various time periods. Thereafter, the cells were washed thrice with 1 mL phosphate buffer saline (PBS) and subsequently lysed with 0.3 mol/L NaOH (0.5 mL). Radioactivity was measured with a γ-counter and calculated as percentage applied dose per 10^6 cells. For competition experiments co-incubation was performed with the unlabeled peptide at a defined concentration. If BSA or dry milk powder was used as blocking agents, it was added to a final concentration of 1% in medium without FCS.

in vivo = details: male, BALB/c nu/nu, mouse, iv, total radioactivity; for tissue to tissue ratio at 0.25 h / tissue to tissue ratio at 1 h: Tumor-to-organ ratio
Procedure: (§1) Male 6-week-old BALB/c nu/nu mice were obtained from Charles River WIGA (Sulzfeld, Germany) and housed in VentiRacks. For inoculation of the tumors, a Matrigel matrix/cell (5 × 10^6 cells) suspension was injected subcutaneously into the flank of the animals. Tumors were grown up to a size of ~1.0 cm^3. ^111In-labeled or ^131I-labeled peptide was injected via the tail vein into the animals, carrying PC-3 prostate tumors. At defined time points post injection, the mice were sacrificed. Tumor, blood and selected tissues (heart, lung, spleen, liver, kidney, muscle, intestinum and brain) were removed, drained of blood, weighed, and the radioactivity was measured with a γ-counter (LB 951G, Berthold Technologies). The percentage injected dose per gram of tissue (%ID/g) was calculated. All animal experiments were carried out in conformity with the German law for protection of animals and are in compliance with European laws.

[2] = tested on: human prostate carcinoma PC-3 cells; details: for Incubation time to maximal radioligand binding / binding saturation: ^111In- or ^125I-labeled peptide, medium without FCS, gamma-counter; for Binding as % of the native molecule (DUP-1) capacity: ^125I-labeled
Procedure: Direct radiolabeling with ^125I was performed on the tyrosine moiety using the chloramine-T method. A 10^−3 M aqueous solution of the respective peptide (5–25 µL, 5–25 nmol) was added to 0.25 M phosphate buffer (25 µL, pH 7.5). A radioactivity amount of 1–10 MBq ^125I- or ^131I- was added to this mixture and vortexed for 30 sec. The labeling reaction was quenched by adding 10 µL of a saturated aqueous methionine solution. The radiolabeled peptide was purified by HPLC on a Lichrosorb RP-select B 5 µm, 250 × 4 mm column using a linear solvent gradient system.
Radiolabeling was performed by complexation with ^111In-chloride. One microliter of a 10^−3 M solution of DOTA-Lys-DUP-1 in 50% dimethyl sulfoxide in water was mixed with sodium acetate buffer (25 µL, pH 5), and 10 MBq ^111InCl3 (PerkinElmer, Rodgau) was added. The solution was heated at 95 °C for 25 min. Quality control was performed by HPLC showing a radiochemical purity >95%.

[3] = tested on: human prostate carcinoma PC-3 cells; design: method as in PMID 15671538; details: ^125I-DUP-1, 'has been shown to be'; earlier work; cited from earlier work
PC-3 tumors [4] = details: cited from earlier work; for Tumor binding: iodinated native ligand
Procedure: A linear peptide with affinity for prostate carcinoma was identified in our group using phage display techniques. The peptide, […], was isolated on prostate-specific membrane antigen-negative cells and evaluated both in vitro and in vivo. Chemical synthesized […] was tested for binding affinity, specificity, kinetics and internalization. In vivo tumor accumulation and organ distribution was evaluated in a nude mouse model, carrying subcutaneously human prostate carcinoma cells. […] A possible explanation for the rapid clearance is the higher polarity of the DOTA conjugate.

[5] = native DUP-1, not among the peptides tested here; earlier work; cited from earlier work
human serum = details: 37 °C, up to 6 hours
PC-3 tumors [6] = test: in vivo; details: mouse
Procedure: as §1

[7] = PC-3 cells, after 10 min incubation
[8] = PC-3 cells, after 60 min incubation
[9] = ^125I-labeled fragments, PC-3 cells, after binding saturation

## C[C@H](NC(=O)[C@H](CCCNC(=N)N)NC(=O)[C@H](CC(N)=O)NC(=O)[C@@H]1CCCN1C(=O)[C@H](CCCNC(=N)N)NC(=O)[C@@H](N)Cc1ccccc1)C(=O)N[C@@H](CCC(N)=O)C(=O)N[C@@H](CC(=O)O)C(=O)N[C@@H](Cc1ccc(O)cc1)C(=O)N[C@@H](CC(N)=O)C(=O)N[C@H](C(=O)N[C@@H](CC(N)=O)C(=O)N[C@@H](CCCCNC(=O)CN1CCN(CC(=O)O)CCN(CC(=O)O)CCN(CC(=O)O)CC1)C(N)=O)[C@@H](C)O (111In complex, metal not drawn) [DOTA-Lys-DUP-1] (H-FRPNRAQDYNTNK(DOTA)-NH2)
[1]; 24 h
  IC50: 3.3 µM
In vivo
  tissue uptake at 0.25 h: 2.1 %ID/g
  tissue uptake at 1 h: 0.14 %ID/g
In vivo; Blood
  tissue to tissue ratio at 0.25 h: 0.79 ± 0.198
  tissue to tissue ratio at 1 h: 3.45 ± 0.261
In vivo; Brain
  tissue to tissue ratio at 0.25 h: 18.6 ± 4.05
  tissue to tissue ratio at 1 h: 14.8 ± 4.73
In vivo; Heart
  tissue to tissue ratio at 0.25 h: 1.99 ± 0.459
  tissue to tissue ratio at 1 h: 7.79 ± 0.578
In vivo; Intestine
  tissue to tissue ratio at 0.25 h: 2.46 ± 0.391
  tissue to tissue ratio at 1 h: 4.79 ± 2.13
In vivo; Kidney
  tissue to tissue ratio at 0.25 h: 0.124 ± 0.028
  tissue to tissue ratio at 1 h: 0.063 ± 0.012
In vivo; Liver
  tissue to tissue ratio at 0.25 h: 2.35 ± 0.196
  tissue to tissue ratio at 1 h: 3.81 ± 0.07
In vivo; Lung
  tissue to tissue ratio at 0.25 h: 0.823 ± 0.167
  tissue to tissue ratio at 1 h: 2.9 ± 0.142
In vivo; Muscle
  tissue to tissue ratio at 0.25 h: 3.39 ± 0.833
  tissue to tissue ratio at 1 h: 8.05 ± 6.85
In vivo; Spleen
  tissue to tissue ratio at 0.25 h: 3.02 ± 0.793
  tissue to tissue ratio at 1 h: 5.71 ± 1.09
In vivo; Tumor
  tissue to tissue ratio at 0.25 h: 1
  tissue to tissue ratio at 1 h: 1

## C-FRPNRAQDYNTN-C (disulfide) [cDUPc]
[1]
  Binding inhibition by unlabeled DUP-1: up to 90%
[2]; PC-3 cells
  Incubation time to maximal radioligand binding / binding saturation: 60 min
[2]; [7]
  Binding as % of the native molecule (DUP-1) capacity: about 7%
[2]; [8]
  Binding as % of the native molecule (DUP-1) capacity: about 19%

## FRPNRAQDYNTN [DUP-1]
[2]; PC-3 cells
  Incubation time to maximal radioligand binding / binding saturation: 5 min
[2]; PC-3 cells, radiolabeled peptide, maximal binding
  Binding, percentage applied dose per 10^6 cells: about 12 % applied dose per 10^6 cells
[3]
  IC50: 0.177 µM
PC-3 tumors [4]; 15 min circulation in mice
  Tumor binding: about 7%
PC-3 tumors [4]; 45 min circulation in mice
  Tumor binding: about 4%
PC-3 tumors [4]; iodinated peptide, 15 min
  Kidney radioactivity: about 8 % ID/g
PC-3 tumors [4]; organ distribution, nude mouse model
  Increase of radioligand-binding in the prostate tumor compared to normal prostate tissue: up to 300%
[5]
  Serum half life: 2 min

## FRPNRAY [DUP-1-6-Y]
[2]
  Binding as % of the leader peptide DUP-1: about 82%

## H-FRPNRAQDYNTNK(DOTA)-NH2 (SMILES C[C@H](NC(=O)[C@H](CCCNC(=N)N)NC(=O)[C@H](CC(N)=O)NC(=O)[C@@H]1CCCN1C(=O)[C@H](CCCNC(=N)N)NC(=O)[C@@H](N)Cc1ccccc1)C(=O)N[C@@H](CCC(N)=O)C(=O)N[C@@H](CC(=O)O)C(=O)N[C@@H](Cc1ccc(O)cc1)C(=O)N[C@@H](CC(N)=O)C(=O)N[C@H](C(=O)N[C@@H](CC(N)=O)C(=O)N[C@@H](CCCCNC(=O)CN1CCN(CC(=O)O)CCN(CC(=O)O)CCN(CC(=O)O)CC1)C(N)=O)[C@@H](C)O)
Human serum
  cleaved bond: phenylalanine1-R2, first_seen, 5 min

## NRAQDY [DUP-4-9]
[1]; ^125I-labeled DUP-4-9 on PC-3 cells, unlabeled peptide as competitor, read-out: IC50
  IC50: 3.5 µM
[1]
  Binding inhibition by unlabeled DUP-1: about 99%
PC-3 tumors [6]
  Activity in kidneys: 15.48 % ID/g
  Radioactivity in blood: about 5.5 % ID/g
[2]; PC-3 cells
  Incubation time to maximal radioligand binding / binding saturation: 30 min
[2]; [9]
  Binding as % of the leader peptide DUP-1: about 70%

## QDYNTN [DUP-7-12]
[2]; [9]
  Binding as % of the leader peptide DUP-1: reduced binding capacity to the background level

## fRPNRAQDYNTN [dPhe-DUP-1]
[1]
  Binding inhibition by unlabeled DUP-1: up to 94%
[2]; PC-3 cells
  Incubation time to maximal radioligand binding / binding saturation: 60 min
[2]; PC-3 cells, summary in discussion, incubation time not printed at place
  In vitro binding capacity relative to DUP-1: about 25%
[2]; [7]
  Binding as % of the native molecule (DUP-1) capacity: about 8.5%
[2]; [8]
  Binding as % of the native molecule (DUP-1) capacity: about 25%
